Experimental data reported in US20200009173A1, “TRIAZOLE-CONTAINING MACROLIDES AND OPHTHALMIC USES THEREFOR” (Tetard, Inc., priority 2017, published 2020).
Values after ≈ are worked out from the molar mass of the structure shown. Where two headings read alike, the source gives them in different places.

Experiments:
Haemophilus influenzae = assay: MIC, Haemophilus influenzae (100 strains); assay type: cell-based
Legionella pneumophila = assay: microbe, parasite or virus in culture; assay type: cell-based
S. pneumoniae = assay: MICs of solithromycin and comparator drugs, S. pneumoniae (30 species); assay type: cell-based
From the text: (§1) EXAMPLE. The formulations described herein show overall higher potency against ocular pathogens than commercial standards.
(§2) MICs (μg/ml) of Solithromycin and Comparator Drugs against Bacterial Species

H. influenzae = assay: MICs of solithromycin and comparator drugs, H. influenzae (30 species); assay type: cell-based
From the text: as §1, §2

MSSA = assay: MICs of solithromycin and comparator drugs, MSSA (31 species); assay type: cell-based
From the text: as §1, §2

MSRA = assay: MICs of solithromycin and comparator drugs, MSRA (30 species); assay type: cell-based
From the text: as §1, §2

S. epidermidis = assay: MICs of solithromycin and comparator drugs, S. epidermidis (30 species); assay type: cell-based
From the text: as §1, §2

Staphylococcus aureus = assay: MIC, Staphylococcus aureus; assay type: cell-based; details: N = 201
Chlamydia trachomatis = assay: MIC, Chlamydia trachomatis; assay type: cell-based; details: N = 10
[1] = tested on: Haemophilus parainfluenzae; assay: MIC, Haemophilus parainfluenzae; assay type: cell-based; details: N = 11
Listeria monocytogenes = assay: MIC, Listeria monocytogenes; assay type: cell-based; details: N = 10
Mycoplasma hominis = assay: MIC, Mycoplasma hominis; assay type: cell-based; details: N = 13
[2] = tested on: Viridans group streptococci; assay: MIC, Viridans group streptococci; assay type: cell-based; details: N = 51
Streptococcus mitis = assay: MIC, Streptococcus mitis; assay type: cell-based; details: N = 73
[3] = Protein binding in plasma; assay type: in vitro ADME
TNFα = TNFα production in LPS-stimulated PMA-differentiated U937 cells (ELISA); assay type: cell-based, human
Experimental: (§3) EXAMPLE. […] Cells. The human monocytic cell line U937 was obtained from the American Type Culture Collection (ATCC, Rockville, Md.). PBMCs from COPD patients were obtained from Brompton hospital and separated by AccuSPIN (Sigma-Aldrich). […] U937 cells were differentiated into adherent macrophage-like morphology by exposure to PMA (50 ng/ml) for 48 h in complete growth medium. Cell viability was assessed microscopically by trypan blue staining. Cell toxicity was determined by MTT assay as needed. This study was approved by the ethics committee of the Royal Brompton Hospitals, and all subjects gave written informed consent. Cytokine ELISA. TNFα and IL-8 concentrations in the supernatant of cell cultures were determined by sandwich ELISA according to the manufacturer's instructions (R&D Systems Europe, Abingdon, UK). Statistical analysis. The results were expressed as the mean±SEM. Comparisons of data in two groups were performed using the Student's t test or the Wilcoxon signed rank test. Multiple comparisons were made by one-way ANOVA with post hoc test (Dunnett's) as appropriate. The difference was considered significant at p<0.05. […] Anti-inflammatory effects of solithromycin in U937 cells.

CXCL8 = CXCL8 (IL-8) production in LPS-stimulated PMA-differentiated U937 cells (ELISA); assay type: cell-based, human
Experimental: as §3

MMP9 = MMP9 activity in PMA-stimulated U937 cells (gelatin zymography); assay type: cell-based, human; details: Homo sapiens, U-937
Experimental: EXAMPLE. […] Cells. The human monocytic cell line U937 was obtained from the American Type Culture Collection (ATCC, Rockville, Md.). PBMCs from COPD patients were obtained from Brompton hospital and separated by AccuSPIN (Sigma-Aldrich). […] U937 cells were differentiated into adherent macrophage-like morphology by exposure to PMA (50 ng/ml) for 48 h in complete growth medium. Cell viability was assessed microscopically by trypan blue staining. Cell toxicity was determined by MTT assay as needed. This study was approved by the ethics committee of the Royal Brompton Hospitals, and all subjects gave written informed consent. Zymography. MMP9 enzyme activity was measured by gelatin zymography. […] After electrophoresis, gels were incubated and rinsed with Novex® zymogram renaturing buffer (Invitrogen) for 30 min at room temperature. The gels were then rinsed in Novex® zymogram developing buffer (Invitrogen) for 30 min at room temperature prior to overnight incubation in the developing buffer at 37° C. After incubation, the gels were stained using a Colloidal Blue Staining Kit (Invitrogen) to visualize the zymogen bands. Statistical analysis. The results were expressed as the mean±SEM. Comparisons of data in two groups were performed using the Student's t test or the Wilcoxon signed rank test. Multiple comparisons were made by one-way ANOVA with post hoc test (Dunnett's) as appropriate. The difference was considered significant at p<0.05.

CC[C@H]1OC(=O)[C@@](C)(F)C(=O)[C@H](C)[C@@H](O[C@@H]2O[C@H](C)C[C@H](N(C)C)[C@H]2O)[C@](C)(OC)C[C@@H](C)C(=O)[C@H](C)[C@H]2N(CCCCn3cc(-c4cccc(N)c4)nn3)C(=O)O[C@]12C [CEM-101, solithromycin]
MIC90 (Haemophilus influenzae; Haemophilus influenzae, 100 strains, read-out: MIC90): 2 µg/mL (≈ 2.37 µM) | MIC50 (Haemophilus influenzae; Haemophilus influenzae, N = 100): 1 µg/mL (≈ 1.18 µM) | MIC90 (Haemophilus influenzae; N = 100): 2 µg/mL (≈ 2.37 µM) | MIC Range (Haemophilus influenzae; N = 100): 0.12 to 4 µg/mL | MIC50 (Legionella pneumophila; Legionella pneumophila): ≤ 0.015 µg/mL | MIC90 (Legionella pneumophila; Legionella pneumophila): ≤ 0.015 µg/mL | MIC90 (Legionella pneumophila; N = 30): ≤0.015 µg/mL | MIC Range (Legionella pneumophila; N = 30): ≤0.015 µg/mL | I (intermediate susceptibility) (S. pneumoniae): 0% | MIC Range (S. pneumoniae): ≤0.001-0.25 ^ μg/ml | NS (not susceptible) (S. pneumoniae): 0% | S (susceptible) (S. pneumoniae): 100% | MIC50 (S. pneumoniae; Streptococcus pneumoniae): 0.002 µg/mL (≈ 0.00237 µM) | MIC90 (S. pneumoniae; Streptococcus pneumoniae): 0.12 µg/mL (≈ 0.142 µM) | I (intermediate susceptibility) (H. influenzae): 0% | MIC Range (H. influenzae): 1 to 4 µg/mL | NS (not susceptible) (H. influenzae): 0% | S (susceptible) (H. influenzae): 100% | MIC50 (H. influenzae; Haemophilus influenzae): 2 µg/mL (≈ 2.37 µM) | MIC90 (H. influenzae; Haemophilus influenzae): 2 µg/mL (≈ 2.37 µM) | I (intermediate susceptibility) (MSSA): 0% | MIC Range (MSSA): 0.004 to 64 µg/mL | NS (not susceptible) (MSSA): 6% | S (susceptible) (MSSA): 94% | MIC50 (MSSA; Staphylococcus aureus, MSSA): 0.015 µg/mL (≈ 0.0178 µM) | MIC90 (MSSA; Staphylococcus aureus, MSSA): 0.03 µg/mL (≈ 0.0355 µM) | MIC50 (MSRA): 0.03 µg/mL (≈ 0.0355 µM) | MIC90 (MSRA): 64 µg/mL (≈ 75.7 µM) | I (intermediate susceptibility) (MSRA; 30 species): 0% | NS (not susceptible) (MSRA; 30 species): 30% | S (susceptible) (MSRA; 30 species): 70% | I (intermediate susceptibility) (S. epidermidis): 3% | NS (not susceptible) (S. epidermidis): 17% | S (susceptible) (S. epidermidis): 80% | MIC50 (S. epidermidis; Staphylococcus epidermidis): 0.015 µg/mL (≈ 0.0178 µM) | MIC90 (S. epidermidis; Staphylococcus epidermidis): 32 µg/mL (≈ 37.9 µM) | MIC50 (Staphylococcus aureus): 0.12 µg/mL (≈ 0.142 µM) | MIC90 (Staphylococcus aureus): > 16 µg/mL | MIC50 (Chlamydia trachomatis; Chlamydia trachomatis): 0.25 µg/mL (≈ 0.296 µM) | MIC90 (Chlamydia trachomatis; Chlamydia trachomatis): 0.25 µg/mL (≈ 0.296 µM) | MIC Range (Chlamydia trachomatis): 0.125 to 0.5 µg/mL | MIC50 ([1]; Haemophilus parainfluenzae): 2 µg/mL (≈ 2.37 µM) | MIC90 ([1]; Haemophilus parainfluenzae): 2 µg/mL (≈ 2.37 µM) | MIC Range [1]: 1 to 2 µg/mL | MIC50 (Listeria monocytogenes; Listeria monocytogenes): 0.03 µg/mL (≈ 0.0355 µM) | MIC90 (Listeria monocytogenes; Listeria monocytogenes): 0.03 µg/mL (≈ 0.0355 µM) | MIC Range (Listeria monocytogenes): 0.03 µg/mL (≈ 0.0355 µM) | MIC50 (Mycoplasma hominis; Metamycoplasma hominis): 0.004 µg/mL (≈ 0.00473 µM) | MIC90 (Mycoplasma hominis; Metamycoplasma hominis): 0.008 µg/mL (≈ 0.00947 µM) | MIC Range (Mycoplasma hominis): 0.002 to 0.008 µg/mL | MIC50 [2]: ≤ 0.008 µg/mL | MIC90 [2]: 0.06 µg/mL (≈ 0.071 µM) | MIC Range [2]: ≤0.008-0.12 ^ μg/mL | MIC Range (Streptococcus mitis): ≤0.03-0.25^ μg/mL | MIC50 (Streptococcus mitis; Streptococcus mitis): ≤ 0.03 µg/mL | MIC90 (Streptococcus mitis; Streptococcus mitis): 0.06 µg/mL (≈ 0.071 µM) | fraction unbound [3]: 0.14 | IC50 (TNFα; Homo sapiens, U-937, LPS, PMA-differentiated U937 cells, read-out: IC50 on TNFα release): 41.6 ± 1.9 µM | effect on TNFα production (TNFα; at 100 μM): significantly inhibited | IC50 (CXCL8; Homo sapiens, U-937, LPS, PMA-differentiated U937 cells, read-out: IC50 on CXCL8 release): 78.2 ± 9.5 µM | effect on CXCL8 production (CXCL8; at 100 μM): significantly inhibited | IC50 (MMP9): 14.9 ± 3.1 µM
